Test results as given in patent publication US9775844B2, “Heterocyclic compounds and uses thereof” (Infinity Pharmaceuticals, Inc., priority 2014, dated 2017).

How the values were obtained:
[1] = target: PI3K-γ in RAW264.7 macrophages (Mus musculus (Mouse), UniProt Q9JHG7); assay: Raw264.7 p110 γ assay (PI3K-γ selective cellular assay, C5a-stimulated phospho-AKT); format: cell-based; conditions: for IC50: phospho-AKT, read-out: Raw264.7 p110 γ assay IC50
Source text: Briefly, serum-starved RAW264.7 cells are stimulated with a known GPCR agonist C5a. […] Cells can be treated with test compounds prior to, simultaneously with, or subsequent to the stimulation by C5a. RAW 264.7 cells respond to the complement component fragment C5a through activation of the C5a receptor, and the C5a receptor activates macrophages and induces cell migration.

[2] = target: PI3K γ (Homo sapiens (Human), UniProt P48736); assay: PI3-Kinase Promega ADP-Glo Max assay; format: biochemical
[3] = target: PI3K δ (Homo sapiens (Human), UniProt O00329); assay: PI3-Kinase Promega ADP-Glo Max assay; format: biochemical
[4] = target: PI3K-δ in RAJI cells (Homo sapiens (Human), UniProt O00329); assay: RAJI p110 δ assay (PI3K-δ selective cellular assay, phospho-AKT); format: cell-based; conditions: phospho-AKT; read-out: RAJI p110 δ assay IC50
[5] = target: PI3K α (Homo sapiens (Human), UniProt P42336); assay: PI3-Kinase Promega ADP-Glo Max assay; format: biochemical
[6] = target: PI3K β (Homo sapiens (Human), UniProt P42338); assay: PI3-Kinase Promega ADP-Glo Max assay; format: biochemical
Procedure: Promega ADP-Glo Max assay kit (Cat. No. V7002) was utilized to determine IC50 values for α, β, δ and γ isoforms of human Class I PI3 kinases (Millipore). […] Reactions were incubated at room temperature for 2 hours followed by addition of 25 uL of stop solution. After a 40-minute incubation at room temperature, 50 uL of Promega detection mix was added followed by incubation for 1 hour at room temperature. Plates were then read on Envision plate reader in lunimescence mode. Data was converted to % inhibition using the following equation below:
[formula] where S is the sample luminescence, Pos is a positive control without added PI3K, Neg is the negative control without added compound. Data was then plotted as % inhibition vs compound concentration.

PI3K α, sequence (P42336 whole entry): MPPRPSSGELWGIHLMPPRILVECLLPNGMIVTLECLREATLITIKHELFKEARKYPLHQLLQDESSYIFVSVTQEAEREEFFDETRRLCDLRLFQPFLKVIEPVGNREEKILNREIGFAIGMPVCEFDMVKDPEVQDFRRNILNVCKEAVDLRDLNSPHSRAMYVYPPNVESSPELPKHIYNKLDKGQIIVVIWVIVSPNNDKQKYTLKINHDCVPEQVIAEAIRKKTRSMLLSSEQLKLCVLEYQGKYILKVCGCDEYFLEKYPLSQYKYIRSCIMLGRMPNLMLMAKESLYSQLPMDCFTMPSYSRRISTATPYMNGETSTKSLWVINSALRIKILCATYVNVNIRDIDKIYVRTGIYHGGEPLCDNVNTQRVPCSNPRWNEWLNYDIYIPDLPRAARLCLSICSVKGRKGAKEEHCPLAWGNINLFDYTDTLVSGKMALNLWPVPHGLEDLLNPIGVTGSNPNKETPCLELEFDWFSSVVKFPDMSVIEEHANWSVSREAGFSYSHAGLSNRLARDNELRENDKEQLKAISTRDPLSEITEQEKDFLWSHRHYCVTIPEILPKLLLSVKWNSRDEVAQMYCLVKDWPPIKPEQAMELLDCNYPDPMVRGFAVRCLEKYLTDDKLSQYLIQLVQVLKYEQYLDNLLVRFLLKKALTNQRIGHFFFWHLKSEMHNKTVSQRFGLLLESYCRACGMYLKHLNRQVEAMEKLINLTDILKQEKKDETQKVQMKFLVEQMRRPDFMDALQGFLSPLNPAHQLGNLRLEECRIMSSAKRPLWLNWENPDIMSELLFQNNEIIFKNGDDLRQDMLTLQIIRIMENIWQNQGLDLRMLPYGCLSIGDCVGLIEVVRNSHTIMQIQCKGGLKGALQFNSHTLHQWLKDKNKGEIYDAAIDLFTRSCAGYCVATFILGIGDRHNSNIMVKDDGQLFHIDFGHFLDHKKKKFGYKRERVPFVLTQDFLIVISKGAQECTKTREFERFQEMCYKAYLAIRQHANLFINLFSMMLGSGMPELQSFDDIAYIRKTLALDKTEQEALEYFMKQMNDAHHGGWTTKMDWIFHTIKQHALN
PI3K α, sequence (P27986 whole entry partner): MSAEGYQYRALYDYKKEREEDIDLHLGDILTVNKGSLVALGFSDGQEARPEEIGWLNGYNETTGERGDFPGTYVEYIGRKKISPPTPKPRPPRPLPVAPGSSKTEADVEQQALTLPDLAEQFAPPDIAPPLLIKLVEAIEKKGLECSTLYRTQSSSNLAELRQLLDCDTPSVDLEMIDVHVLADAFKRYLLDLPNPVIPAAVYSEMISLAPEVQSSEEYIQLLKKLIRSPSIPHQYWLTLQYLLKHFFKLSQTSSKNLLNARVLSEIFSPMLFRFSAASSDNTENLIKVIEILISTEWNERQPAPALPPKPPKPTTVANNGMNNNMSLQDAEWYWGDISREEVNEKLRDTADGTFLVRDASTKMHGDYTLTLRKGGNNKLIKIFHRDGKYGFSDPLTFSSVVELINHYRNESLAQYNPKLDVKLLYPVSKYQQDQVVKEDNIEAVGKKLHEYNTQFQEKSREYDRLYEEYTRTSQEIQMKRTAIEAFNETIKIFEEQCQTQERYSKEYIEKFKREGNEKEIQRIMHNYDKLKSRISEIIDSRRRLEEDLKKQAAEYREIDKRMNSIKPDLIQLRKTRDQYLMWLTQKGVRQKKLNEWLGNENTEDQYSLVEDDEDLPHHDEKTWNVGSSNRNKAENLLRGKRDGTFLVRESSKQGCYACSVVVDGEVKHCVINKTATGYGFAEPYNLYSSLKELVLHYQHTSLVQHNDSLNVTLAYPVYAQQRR
PI3K γ, sequence (P48736 whole entry): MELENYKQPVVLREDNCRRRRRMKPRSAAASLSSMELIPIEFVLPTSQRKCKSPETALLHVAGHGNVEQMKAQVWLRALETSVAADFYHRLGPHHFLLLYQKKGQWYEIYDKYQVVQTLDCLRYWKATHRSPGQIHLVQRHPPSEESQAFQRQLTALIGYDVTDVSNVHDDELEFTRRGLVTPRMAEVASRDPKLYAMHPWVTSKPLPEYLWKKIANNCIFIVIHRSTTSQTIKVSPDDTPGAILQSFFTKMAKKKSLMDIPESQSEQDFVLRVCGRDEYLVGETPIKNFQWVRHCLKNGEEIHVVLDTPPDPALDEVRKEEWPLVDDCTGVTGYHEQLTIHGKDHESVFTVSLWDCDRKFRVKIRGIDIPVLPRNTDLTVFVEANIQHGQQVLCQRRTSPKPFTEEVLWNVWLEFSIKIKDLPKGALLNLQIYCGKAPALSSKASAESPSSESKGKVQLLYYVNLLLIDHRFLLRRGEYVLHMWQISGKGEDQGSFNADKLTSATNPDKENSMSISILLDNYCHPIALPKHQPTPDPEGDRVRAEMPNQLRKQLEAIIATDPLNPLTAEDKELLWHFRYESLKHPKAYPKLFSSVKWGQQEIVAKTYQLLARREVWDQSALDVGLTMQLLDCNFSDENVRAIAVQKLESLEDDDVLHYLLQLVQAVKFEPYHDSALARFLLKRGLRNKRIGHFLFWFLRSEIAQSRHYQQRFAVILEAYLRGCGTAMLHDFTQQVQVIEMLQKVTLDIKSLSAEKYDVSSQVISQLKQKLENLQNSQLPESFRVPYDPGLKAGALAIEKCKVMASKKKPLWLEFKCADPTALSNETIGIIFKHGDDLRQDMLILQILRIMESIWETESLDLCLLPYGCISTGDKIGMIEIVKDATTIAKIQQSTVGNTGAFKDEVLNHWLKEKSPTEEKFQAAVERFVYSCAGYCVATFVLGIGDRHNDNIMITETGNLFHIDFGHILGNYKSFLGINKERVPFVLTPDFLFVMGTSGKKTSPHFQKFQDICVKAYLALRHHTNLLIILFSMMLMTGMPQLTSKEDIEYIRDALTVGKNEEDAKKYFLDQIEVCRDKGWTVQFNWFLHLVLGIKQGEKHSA
PI3K-δ in RAJI cells, sequence (O00329 whole entry): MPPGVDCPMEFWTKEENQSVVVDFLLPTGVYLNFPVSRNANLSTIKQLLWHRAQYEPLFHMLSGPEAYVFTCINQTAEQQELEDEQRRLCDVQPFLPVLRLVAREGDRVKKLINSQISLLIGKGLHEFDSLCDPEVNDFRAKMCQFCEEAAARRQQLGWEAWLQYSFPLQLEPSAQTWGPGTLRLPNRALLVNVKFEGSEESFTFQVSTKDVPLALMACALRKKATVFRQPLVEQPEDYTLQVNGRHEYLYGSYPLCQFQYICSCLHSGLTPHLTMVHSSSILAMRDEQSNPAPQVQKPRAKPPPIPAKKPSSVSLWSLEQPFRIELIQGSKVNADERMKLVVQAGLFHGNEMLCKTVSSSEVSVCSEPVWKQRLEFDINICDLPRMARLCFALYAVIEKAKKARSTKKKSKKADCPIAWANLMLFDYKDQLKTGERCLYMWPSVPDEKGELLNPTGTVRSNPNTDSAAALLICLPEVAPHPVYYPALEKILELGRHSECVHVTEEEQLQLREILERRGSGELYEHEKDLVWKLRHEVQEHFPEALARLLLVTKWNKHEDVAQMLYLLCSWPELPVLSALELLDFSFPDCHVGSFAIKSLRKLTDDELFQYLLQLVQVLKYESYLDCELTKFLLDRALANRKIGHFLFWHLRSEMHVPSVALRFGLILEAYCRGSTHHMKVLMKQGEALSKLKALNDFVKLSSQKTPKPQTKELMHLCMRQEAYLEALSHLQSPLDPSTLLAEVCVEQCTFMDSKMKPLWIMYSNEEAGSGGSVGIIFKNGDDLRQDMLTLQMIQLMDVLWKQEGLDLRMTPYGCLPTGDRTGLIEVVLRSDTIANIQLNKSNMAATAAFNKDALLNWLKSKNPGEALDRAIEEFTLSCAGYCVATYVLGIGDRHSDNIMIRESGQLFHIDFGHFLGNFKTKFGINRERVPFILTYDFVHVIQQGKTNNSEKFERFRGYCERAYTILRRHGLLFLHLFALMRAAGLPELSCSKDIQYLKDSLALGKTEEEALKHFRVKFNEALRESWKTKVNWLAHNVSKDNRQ
PI3K-δ in RAJI cells, sequence (P27986 whole entry partner): as the sequence (P27986 whole entry partner) above
PI3K δ, sequence (O00329 whole entry): as the sequence (O00329 whole entry) above
PI3K δ, sequence (P27986 whole entry partner): as the sequence (P27986 whole entry partner) above

Structure (SMILES) | RAJIδ/Raw264.7 γ IC50 (selectivity) [1] | IC50 [1] | IC50 [2] | PI3K δ/PI3K γ IC50 (selectivity) [2] | IC50 [3] | IC50 [4] | IC50 [5] | IC50 [6]
C[C@H](NC(=O)c1c(N)nn2cccnc12)c1cc2cccc(C#Cc3cncs3)c2c(=O)n1-c1ccccc1 [Compound 41] | Y (Y = 50 to <850) | 1 to 50 nM | 100 to 500 nM | Y (Y = 50 to <850) | 5000 to 10000 nM | 100 to 500 nM | 5000 to 10000 nM | 5000 to 10000 nM
C[C@H](NC(=O)c1c(N)nn2cccnc12)c1cc2cccc(C#Cc3cnc[nH]3)c2c(=O)n1-c1ccccc1 [Compound 43] | X (X = 10 to <50) | 1 to 50 nM | 100 to 500 nM | Y (Y = 50 to <850) | 5000 to 10000 nM | 100 to 500 nM | 5000 to 10000 nM | 5000 to 10000 nM
C#Cc1cccc2nc([C@H](C)NC(=O)c3c(N)nn4cccnc34)n(-c3ccc(F)c(F)c3)c(=O)c12 [Compound 45] | W (W = >1 to <10) | 1 to 50 nM | 100 to 500 nM | Y (Y = 50 to <850) | 5000 to 10000 nM | 100 to 500 nM | 5000 to 10000 nM | 5000 to 10000 nM
C#Cc1cccc2nc([C@H](C)NC(=O)c3c(N)nn4cccnc34)n(-c3ccccc3)c(=O)c12 [Compound 46] | W (W = >1 to <10) | 1 to 50 nM | 1 to 100 nM | Y (Y = 50 to <850) | 1000 to 5000 nM | 1 to 100 nM | 5000 to 10000 nM | 1000 to 5000 nM
C#Cc1cccc2nc([C@H](C)NC(=O)c3c(N)nn4cccnc34)n(C)c(=O)c12 [Compound 48] | V (V = 0.1 to 1) | 1 to 50 nM | 500 to 1000 nM | W (W = >1 to <10) | 1000 to 5000 nM | 1 to 100 nM | 1000 to 5000 nM | 500 to 1000 nM
C#Cc1cccc2nc([C@H](C)NC(=O)c3nccnc3N)n(-c3ccc(F)cc3)c(=O)c12 [Compound 49] | V (V = 0.1 to 1) | 1 to 50 nM | 1 to 100 nM | X (X = 10 to <50) | 1000 to 5000 nM | 1 to 100 nM | 5000 to 10000 nM | 1000 to 5000 nM
C#Cc1cccc2nc([C@H](C)NC(=O)c3c(N)nn4cccnc34)n(-c3ccc(F)cc3)c(=O)c12 [Compound 50] | W (W = >1 to <10) | 1 to 50 nM | 1 to 100 nM | Y (Y = 50 to <850) | 1000 to 5000 nM | 1 to 100 nM | 5000 to 10000 nM | 5000 to 10000 nM
CC#Cc1cccc2cc(C(C)NC(=O)c3c(N)nn4cccnc34)c(-c3ccccc3)nc12 (stereo not shown) [Compound 51] | W (W = >1 to <10) | 1 to 50 nM | 100 to 500 nM | W (W = >1 to <10) | 1000 to 5000 nM | 1 to 100 nM | 5000 to 10000 nM | 1000 to 5000 nM
C[C@H](NC(=O)c1c(N)nn2cccnc12)c1cc2cccc(C#Cc3cscn3)c2c(=O)n1-c1ccccc1 [Compound 54] | W (W = >1 to <10) | 1 to 50 nM | 1 to 100 nM | Y (Y = 50 to <850) | 1000 to 5000 nM | 100 to 500 nM | 1000 to 5000 nM | 1000 to 5000 nM
C[C@H](NC(=O)c1c(N)nn2cccnc12)c1nc2cccc(C#Cc3cnn(C)c3)c2c(=O)n1C [Compound 55] | X (X = 10 to <50) | 1 to 50 nM | 1000 to 5000 nM | W (W = >1 to <10) | 5000 to 10000 nM | 500 to 1000 nM | 1000 to 5000 nM | 1000 to 5000 nM
C[C@H](NC(=O)c1c(N)nn2cccnc12)c1cc2cccc(C#CCN3CCN(C)CC3)c2c(=O)n1-c1ccccc1 [Compound 56] | V (V = 0.1 to 1) | 100 to 10000 nM | 100 to 500 nM | X (X = 10 to <50) | 5000 to 10000 nM | 100 to 500 nM | 5000 to 10000 nM | 5000 to 10000 nM
C[C@H](NC(=O)c1c(N)nn2cccnc12)c1cc2cccc(C#CCN(C)C)c2c(=O)n1-c1ccccc1 [Compound 57] | W (W = >1 to <10) | 50 to 100 nM | 500 to 1000 nM | W (W = >1 to <10) | 5000 to 10000 nM | 100 to 500 nM | 5000 to 10000 nM | 5000 to 10000 nM
C[C@H](NC(=O)c1c(N)nn2cccnc12)c1cc2cccc(C#CC(F)(F)F)c2c(=O)n1-c1ccccc1 [Compound 58] | V (V = 0.1 to 1) | 100 to 10000 nM | 1000 to 5000 nM | W (W = >1 to <10) | 5000 to 10000 nM | 500 to 1000 nM | 5000 to 10000 nM | 5000 to 10000 nM
C[C@H](NC(=O)c1c(N)nn2cccnc12)c1cc2cccc(C#Cc3nccs3)c2c(=O)n1-c1ccccc1 [Compound 59] | X (X = 10 to <50) | 1 to 50 nM | 100 to 500 nM | X (X = 10 to <50) | 5000 to 10000 nM | 100 to 500 nM | 5000 to 10000 nM | 5000 to 10000 nM
Cc1csc(C#Cc2cccc3cc([C@H](C)NC(=O)c4c(N)nn5cccnc45)n(-c4ccccc4)c(=O)c23)n1 [Compound 60] | Y (Y = 50 to <850) | 1 to 50 nM | 100 to 500 nM | X (X = 10 to <50) | 5000 to 10000 nM | 100 to 500 nM | 5000 to 10000 nM | 5000 to 10000 nM
Cc1ccncc1C#Cc1cccc2cc([C@H](C)NC(=O)c3c(N)nn4cccnc34)n(-c3ccccc3)c(=O)c12 [Compound 61] | Y (Y = 50 to <850) | 1 to 50 nM | 500 to 1000 nM | X (X = 10 to <50) | 5000 to 10000 nM | 1000 to 10000 nM | 5000 to 10000 nM | 5000 to 10000 nM
C[C@H](NC(=O)c1c(N)nn2cccnc12)c1cc2cccc(C#CC3(O)CN4CCC3CC4)c2c(=O)n1-c1ccccc1 (stereo partly shown) [Compound 62] | V (V = 0.1 to 1) | 100 to 10000 nM | 500 to 1000 nM | X (X = 10 to <50) | 5000 to 10000 nM | 1000 to 10000 nM | 5000 to 10000 nM | 5000 to 10000 nM
Cc1nc(C#Cc2cccc3nc([C@H](C)NC(=O)c4c(N)nn5cccnc45)n(-c4ccccc4)c(=O)c23)cs1 [Compound 63] | Y (Y = 50 to <850) | 1 to 50 nM | 1 to 100 nM | Y (Y = 50 to <850) | 5000 to 10000 nM | 500 to 1000 nM | 5000 to 10000 nM | 5000 to 10000 nM
C[C@H](NC(=O)c1c(N)nn2cccnc12)c1cc2cccc(C#CC3CCCC3)c2c(=O)n1-c1ccccc1 [Compound 64] | X (X = 10 to <50) | 100 to 10000 nM | 1000 to 5000 nM | W (W = >1 to <10) | 5000 to 10000 nM | 1000 to 10000 nM | 5000 to 10000 nM | 5000 to 10000 nM
C[C@H](NC(=O)c1c(N)nn2cccnc12)c1cc2cccc(C#CC3CCCCC3)c2c(=O)n1-c1ccccc1 [Compound 65] | X (X = 10 to <50) | 100 to 10000 nM | 1000 to 5000 nM | W (W = >1 to <10) | 5000 to 10000 nM | 1000 to 10000 nM | 5000 to 10000 nM | 5000 to 10000 nM
